Results from US10399950B2, “Substituted amino azoles as plant growth regulators” (SYNGENTA PARTICIPATIONS AG, priority 2013, dated 2019).

Tests used:
[1] = system: Wheat (Triticum aestivum) seeds of the variety Arina; test: Wheat assay: plant (root and shoot) area and curliness of the roots; format: in vivo; settings: seeds in pouches with 10 mL compound solution; scanned twelve days after sowing/application
Method: Two bioassays were developed in order to assay the activity of the compounds of the present invention. In the first assay, the activity of the compound was quantified in beans based on its effect on the elongation of the petiole of the second leaf. In the second assay, the compound's effect on the root growth of wheat was determined. The test compounds were dissolved in small volumes of dimethyl sulfoxide and diluted to the appropriate concentration with water. Wheat (Triticum aestivum) seeds of the variety Arina were sown in pouches (14.7×13.2 cm) containing 10 mL of the appropriate compound solution. The pouches were stored at 17° C. for three days to enable the seeds to germinate. Plants were then stored at 5° C. Twelve days after sowing/application, plants were removed from the pouches and scanned. The effect of the compounds was quantified by determining plant (root and shoot) area and curliness of the roots (curliness is an indicator of brassinosteroid-type activity).

[2] = target: T1, Arabidopsis BIN2 kinase (Uniprot Q39011), His6-BIN2 (Arabidopsis thaliana, UniProt Q39011); test: In vitro assay for inhibition of plant GSK3/shaggy-like kinase activity (ADP-Glo); format: biochemical; settings: compounds at 5 μM; 5 μM ATP; myelin basic protein substrate; 1 h at 20° C.; triplicate; read-out: inhibition of the activity of His6-BIN2 relative to the solvent vehicle control
T1 construct: made in house; host or cells: E. coli BL21
T1 sequence (Q39011 1-380): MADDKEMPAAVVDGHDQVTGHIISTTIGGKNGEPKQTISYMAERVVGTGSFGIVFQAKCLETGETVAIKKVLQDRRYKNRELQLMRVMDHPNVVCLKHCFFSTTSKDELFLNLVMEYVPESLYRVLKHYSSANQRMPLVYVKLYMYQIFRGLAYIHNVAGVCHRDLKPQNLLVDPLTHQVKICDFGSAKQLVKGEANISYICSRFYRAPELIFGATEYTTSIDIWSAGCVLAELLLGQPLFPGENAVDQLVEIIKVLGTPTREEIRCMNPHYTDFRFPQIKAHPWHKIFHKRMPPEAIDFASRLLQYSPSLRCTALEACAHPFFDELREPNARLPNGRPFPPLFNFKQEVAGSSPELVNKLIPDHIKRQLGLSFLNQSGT
Method: Arabidopsis BIN2 kinase (Uniprot Q39011) was produced in E. coli BL21 as an N-terminal hexahistidine fusion protein. In vitro kinase assays were performed by incubating 50 ng His6-BIN2 protein with 5 μg myelin basic protein (Sigma-Aldrich) as substrate and 5 μM ATP as co-substrate in reaction buffer consisting of 40 mM Tris-HCl, 20 mM MgCl2 and 0.1 mg/mL bovine serum albumin in a final reaction volume of 50 μl. Enzyme activity was assessed in the absence and presence of compounds (described in Tables A and B) at 5 μM by measuring the level of ADP produced after incubation for 1 h at 20° C. using an enzyme-coupled bioluminescent assay (ADP-Glo, Promega Corp.). The experiment was performed in triplicate and principaly on the acid form (as it the active A1).

inhibition at 5 µM [2] [%] | melting point [°C] | Compound | curliness of the roots (indicator of brassinosteroid-type activity) [1]
≥ 20 | – | N#Cc1cnc(NC(=O)CCC(=O)O)s1 [A5, 4-[(5-cyanothiazol-2-yl)amino]-4-oxo-butanoic acid] | curly root phenotype
– | 118 to 119 | COC(=O)CCC(=O)Nc1ncc(C#N)s1 [A1, Methyl 4-[(5-cyanothiazol-2-yl)amino]-4-oxo-butanoate] | curly root phenotype
